Consider 13 compounds from patent US6653476B2, “Thienopyridine derivatives, their production and use” (Takeda Chemical Industries, Ltd., priority 2000, dated 2003).

Tested on in the first data set: not given
Test: not given
Settings: not given
By melting point is commonly meant the temperature, or range, at which the solid turns liquid. On to `CN(C)CC(=O)Oc1ccc(-c2c(Cl)c(CN3C(=O)CCC3=O)nc3sc4c(c23)CCS(=O)(=O)C4)cc1.Cl`, for which the melting point is 199 to 200 °C.

In the case of `COc1ccc(-c2c(Cl)c(CN3C(=O)CCC3=O)nc3sc4c(c23)CC[S+]([O-])C4)cc1` (centres unmarked) [Example 22, 1-{[3-Chloro-4-(4-methoxyphenyl)-7-oxido-5,8-dihydro-6H-thiopyrano[4′,3′:4,5]thieno[2,3-b]pyridin-2-yl]methyl}-2,5-pyrrolidinedione], the melting point fell in the range of 268 to 269 °C. Same read-out and setting: for `COc1ccc(-c2c(Cl)c(CN3C(=O)CCC3=O)nc3sc4c(c23)CC[S@+]([O-])C4)cc1` [Example 46, (S)-1-{[3-chloro-4-(4-methoxyphenyl)-7-oxido-5,8-dihydro-6H-thiopyrano[4′,3′:4,5]thieno[2,3-b]pyridin-2-yl]methyl}-2,5-pyrrolidinedione] the value was 217 to 218.5 °C (dec.); for `COc1ccc(-c2c(Cl)c(CN3C(=O)CCC3=O)nc3sc4c(F)c(OC)ccc4c23)cc1` [Example 60, 1-{[3-chloro-8-fluoro-7-methoxy-4-(4-methoxyphenyl)[1]-benzothieno[2,3-b]pyridin-2-yl]methyl}-2,5-pyrrolidinedione], 215 to 216 °C. The compound `CC(=O)Oc1ccc(-c2c(Cl)c(CN3C(=O)CCC3=O)nc3sc4c(c23)CCS(=O)(=O)C4)cc1` [Example 64, 4-{3-chloro-2-[(2,5-dioxo-1-pyrrolidinyl)methyl]-7,7-dioxido-5,8-dihydro-6H-thiopyrano[4′,3′:4,5]thieno[2,3-b]pyridin-4-yl}phenylacetate] gave a melting point of 272 to 273 °C. Take `CCC(=O)Oc1ccc(-c2c(Cl)c(CN3C(=O)CCC3=O)nc3sc4c(c23)CCS(=O)(=O)C4)cc1` [Example 65]: the melting point lay in the range of 268 to 269 °C. In the case of `CCOC(=O)COc1ccc(-c2c(Cl)c(CN3C(=O)CCC3=O)nc3sc4c(c23)CCS(=O)(=O)C4)cc1` [Example 110, ethyl (4-{3-chloro-2-[(2,5-dioxo-1-pyrrolidinyl)methyl]-7,7-dioxidO-5,8-dihydro-6H-thiopyrano[4′,3′:4,5]thieno[2,3-b]pyridin-4-yl}phenoxy)acetate], the melting point is 215 to 216 °C. As for `CC(C)(C)OC(=O)COc1ccc(-c2c(Cl)c(CN3C(=O)CCC3=O)nc3sc4c(c23)CCSC4)cc1` [Example 112, tert-butyl (4-{3-chloro-2-[(2,5-dioxo-1-pyrrolidinyl)methyl]-5,8-dihydro-6H-thiopyrano[4′,3′:4,5]-thieno[2,3-b]pyridin-4-yl}phenoxy)acetate], the melting point lay in the range of 191 to 192 °C. With `CC(C)(C)OC(=O)COc1ccc(-c2c(Cl)c(CN3C(=O)CCC3=O)nc3sc4c(c23)CC[S+]([O-])C4)cc1` (centres unmarked) [Example 113, tert-butyl (4-{3-chloro-2-[(2,5-dioxo-1-pyrrolidinyl)methyl]-7-oxido-5,8-dihydro-6H-thiopyrano[4′,3′:4,5]thieno(2,3-b]pyridin-4-yl}phenoxy)-acetate], the melting point fell in the range of 175 to 176 °C.

Turning to `CC(C)(C)OC(=O)COc1ccc(-c2c(Cl)c(CN3C(=O)CCC3=O)nc3sc4c(c23)CCS(=O)(=O)C4)cc1` [Example 114, tert-butyl (4-{3-chloro-2-[(2,5-dioxo-1-pyrrolidinyl)methyl]-7,7-dioxido-5,8-dihydro-6H-thiopyrano[4′,3′:4,5]thieno[2,3-b]pyridin-4-yl}phenoxy)acetate], the melting point is 204 to 205 °C. For the compound `O=C(O)COc1ccc(-c2c(Cl)c(CN3C(=O)CCC3=O)nc3sc4c(c23)CC[S+]([O-])C4)cc1` (centres unmarked) [Example 115, (4-{3-chloro-2-[(2,5-dioxo-1-pyrrolidinyl)methyl]-7-oxido-5,8-dihydro-6H-thiopyrano[4′,3′:4,5]thieno[2,3-b]pyridin-4-yl}phenoxy)acetic acid], the melting point was in the range of 205 to 206 °C. Same read-out and setting: for `O=C(O)COc1ccc(-c2c(Cl)c(CN3C(=O)CCC3=O)nc3sc4c(c23)CCS(=O)(=O)C4)cc1` [Example 116, (4-{3-chloro-2-[(2,5-dioxo-1-pyrrolidinyl)methyl]-7,7-dioxido-5,8-dihydro-6H-thiopyrano-[4′,3′:4,5]-thieno[2,3-b]pyridin-4-yl}phenoxy)acetic acid] the value was 260 to 261 °C.

The next data set relates to Adjuvant Arthritis in Rats. The data set can be described thus: Effect on adjuvant arthritis in rats (footpad swelling). It counts as in vivo. The settings on record: male Lewis rats, 3.13 mg/kg/day orally once daily for 14 days, left footpad edema on Day 14; ** p < 0.01 vs. control. The method, then: The test compound was suspended in 0.5% methyl cellulose and administered orally once daily for 14 days to male Lewis rats (7-week old, Japan Clea), which had been sensitized by the intradermal injection of 0.05 ml Freund's complete adjuvant (0.5% suspension of killed Mycobacterium tuberculosis in liquid paraffin) into the right hind footpad. Immediately before the sensitization (Day 0) and on 14 days after the administration (Day 14), the volume of the edema on the left footpad was measured by using a plethysmometer (manufactured by Ugo Basile Company, Italy) and the suppression rate (%) of footpad swelling relative to the unsensitized rats was calculated according to the following equation.
Suppression rate of footpad swelling (%)={1-[(volume of footpad edema in the treatment group)−(volume of footpad edema in the unsensitized group)]/[(volume of footpad edema in the non-treatment group)−(volume of footpad edema in the unsensitized group)]}×100
The results were expressed by the mean±S.E. in each group (n=6) and tested by Dunnet's comparison with a significance level of 5%.
As to “3-chloro-2-[(2,5-dioxopyrrolidin-1-yl)methyl]-5,6,7,8-tetrahydro-7-oxo-4-(4-methoxyphenyl)[1]-benzothieno[2,3-b]pyridine ethylene ketal [Example 13]”, the “Suppression rate of footpad swelling (%)” value was 77** %.

As to `COc1ccc(-c2c(Cl)c(CN3C(=O)CCC3=O)nc3sc4c(c23)CC[S+]([O-])C4)cc1` (centres unmarked) [Example 22, 1-{[3-Chloro-4-(4-methoxyphenyl)-7-oxido-5,8-dihydro-6H-thiopyrano[4′,3′:4,5]thieno[2,3-b]pyridin-2-yl]methyl}-2,5-pyrrolidinedione], the “Suppression rate of footpad swelling (%)” value was 88** %.
